In patent publication US5126057A, “Disinfecting with N,N'-dihaloimidazolidin-4-ones” (Auburn Research Foundation, priority 1991, dated 1992):

Experiments:
[1] = tested on: Oscillatoria lutea, Anabaena cylindrica, and Chlorella pyrenoidosa; assay: Prevention of the growth of algae in water by Compound 1; type: cell-based
Description: (§1) Two 10 gallon aquariums were each filled with 35 liters of Bristol's solution at pH 6.8 as described in example 16. To aquarium A was added 6.14 milligrams per liter total potential positive chlorine from 0.638 grams of 1,3-dichloro-2,2,5,5-tetramethylimidazolidin-4-one (Compound 1) as prepared in example 1. Aquarium B was used as a control with no halogenated compound added. Then 5 milliliters of an inoculum containing the algae Oscillatoria lutea, Anabaena cylindrica, and Chlorella pyrenoidosa with an absorbance of 0.14 at 750 nanometers was added to each aquarium. Constant aeration and illumination as described in example 16 were provided throughout the experiment. The laboratory temperature varied between 21° and 24° C. during the course of the experiment. Both aquariums were sampled periodically such that the absorption at 750 nanometers could be measured with a Milton Roy Spectronic 301 spectrophotometer. Aquarium A was also sampled for total potential positive chlorine using standard iodometric titration.

[2] = as above; type: cell-based; settings: algal aquarium, pH 6.8, start 6.14 mg per liter, read-out: Percent Total Potential Positive Chlorine Remaining
Description: as §1

[3] = Stability in demand-free water exposed to direct sunlight; type: physicochemical; settings: pH 7; for remaining at 3 h / remaining at 5 h / remaining at 10 h: demand-free water, direct sunlight
Description: The stabilities of compounds 1,5, and free chlorine from calcium hypochlorite (Compound 2) in water exposed to direct sunlight were determined. Each compound at the 10 milligrams per liter total chlorine concentration level (or at the molar equivalent for total halogen for Compound 5) was dissolved in 85 milliliters of demand-free water buffered at pH 7.0 in separate 100 milliliter beakers which were placed in a temperature-controlled water bath (22°-24° C.), and the bath containing the solutions was placed on the roof of the chemistry building at Auburn University exposed to direct sunlight during August 1988. Total potential positive halogen assays were made periodically on aliquots withdrawn over a 10 hour period using the standard iodometric titration technique.

CC1(C)C(=O)N(Cl)C(C)(C)N1Cl [Compound 1, 1,3-dichloro-2,2,5,5-tetramethylimidazolidin-4-one]
green turbid tint (in words) ([1]; 6.14 mg per liter Cl+, 18 day experiment): did not develop such a color at any time during the 18 day experiment | A750 (Absorbance at 750 Nanometers) ([1]; 6.14 mg per liter Cl+, day 7): 0.002 | A750 (Absorbance at 750 Nanometers) ([1]; 6.14 mg per liter Cl+, day 11): 0.0 | A750 (Absorbance at 750 Nanometers) ([1]; 6.14 mg per liter Cl+, day 12): 0.001 | A750 (Absorbance at 750 Nanometers) ([1]; 6.14 mg per liter Cl+, day 13): 0.0 | A750 (Absorbance at 750 Nanometers) ([1]; 6.14 mg per liter Cl+, day 14): 0.001 | A750 (Absorbance at 750 Nanometers) ([1]; 6.14 mg per liter Cl+, day 15): 0.0 | A750 (Absorbance at 750 Nanometers) ([1]; 6.14 mg per liter Cl+, day 18): 0.0 | prevention of the growth of algae (in words) ([1]; as long as a measurable amount of the compound is present): effective at preventing the growth of algae in water | Percent Total Potential Positive Chlorine Remaining ([1]; start 6.14 mg per liter, day 0): 100.0% | remaining at 24 h ([2]; day 1): 70.1% | remaining at 96 h ([2]; day 4): 53.4% | remaining at 120 h ([2]; day 5): 52.1% | remaining at 144 h ([2]; day 6): 51% | remaining at 168 h ([2]; day 7): 49.5% | remaining at 192 h ([2]; day 8): 48.9% | remaining at 264 h ([2]; day 11): 45.8% | remaining at 288 h ([2]; day 12): 45.6% | remaining at 312 h ([2]; day 13): 44.8% | remaining at 336 h ([2]; day 14): 43.3% | remaining at 360 h ([2]; day 15): 44.8% | remaining at 432 h ([2]; day 18): 41.9% | remaining at 3 h [3]: 84.9% | remaining at 5 h [3]: 74.8% | remaining at 10 h [3]: 51.2% | stability (in words) [3]: much more stable than free chlorine

CC1(C)C(=O)N(Cl)C(C)(C)N1Br [Compound 5, 1-bromo-3-chloro-2,2,5,5-tetramethylimidazolidin-4-one]
remaining at 3 h [3]: 60.5% | remaining at 5 h [3]: 45.7% | remaining at 10 h [3]: 14.9% | stability (in words) [3]: less stable than Compound 1, but significantly more stable than free chlorine
